Among the data in ChEMBL document CHEMBL5465560, “Selectivity Literature for EUbOPEN Chemogenomic Library” (2024) are % of control, % of inhibition and dTM values, retold here.

Where only a bound is given, the exact number is not on record here.

The target in test [1] is Tyrosine-protein kinase receptor UFO (Homo sapiens) (UniProt P30530). The experiment in a line: Selectivity interaction (KinomeScan (DiscoverX)) EUB0001079a AXL. To be noted: at 1 µM.
Test [2] addresses Phosphatidylinositol 4-phosphate 3-kinase C2 domain-containing subunit beta (Homo sapiens) (UniProt O00750). The experiment in a line: Selectivity interaction (KinomeScan (DiscoverX)) EUB0001049a PIK3C2B. To be noted: at 1 µM.
Test [3] concerns the target 5'-AMP-activated protein kinase catalytic subunit alpha-2 (Homo sapiens) (UniProt P54646). Description: Selectivity interaction (KinomeScan (DiscoverX)) EUB0000045b PRKAA2.
Test [4] deals with Calcium/calmodulin-dependent protein kinase type 1D (Homo sapiens) (UniProt Q8IU85). The experiment in a line: Selectivity interaction (KinomeScan (DiscoverX)) EUB0000045b CAMK1D.
Chain of Calcium/calmodulin-dependent protein kinase type 1D (Homo sapiens) (Q8IU85 whole entry, looked up): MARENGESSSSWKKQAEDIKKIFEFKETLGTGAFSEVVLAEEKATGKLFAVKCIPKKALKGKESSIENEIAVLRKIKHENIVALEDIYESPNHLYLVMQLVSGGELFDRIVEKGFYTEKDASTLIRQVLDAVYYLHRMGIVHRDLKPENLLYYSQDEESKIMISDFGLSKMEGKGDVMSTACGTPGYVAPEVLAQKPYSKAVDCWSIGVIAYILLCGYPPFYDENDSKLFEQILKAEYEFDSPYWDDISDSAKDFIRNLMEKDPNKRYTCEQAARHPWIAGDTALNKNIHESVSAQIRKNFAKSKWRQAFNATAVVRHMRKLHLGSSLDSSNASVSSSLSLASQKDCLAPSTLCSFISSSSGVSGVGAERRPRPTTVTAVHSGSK
Test [5] has as its target Mast/stem cell growth factor receptor Kit (Homo sapiens, UniProt P10721). Description: Selectivity interaction (Kinase panel (Invitrogen)) EUB0000639a KIT. To be noted: at 200 nM.
For the next test, the target named is T1, Peregrin (Homo sapiens) (UniProt P55201).
T1 sequence (whole entry): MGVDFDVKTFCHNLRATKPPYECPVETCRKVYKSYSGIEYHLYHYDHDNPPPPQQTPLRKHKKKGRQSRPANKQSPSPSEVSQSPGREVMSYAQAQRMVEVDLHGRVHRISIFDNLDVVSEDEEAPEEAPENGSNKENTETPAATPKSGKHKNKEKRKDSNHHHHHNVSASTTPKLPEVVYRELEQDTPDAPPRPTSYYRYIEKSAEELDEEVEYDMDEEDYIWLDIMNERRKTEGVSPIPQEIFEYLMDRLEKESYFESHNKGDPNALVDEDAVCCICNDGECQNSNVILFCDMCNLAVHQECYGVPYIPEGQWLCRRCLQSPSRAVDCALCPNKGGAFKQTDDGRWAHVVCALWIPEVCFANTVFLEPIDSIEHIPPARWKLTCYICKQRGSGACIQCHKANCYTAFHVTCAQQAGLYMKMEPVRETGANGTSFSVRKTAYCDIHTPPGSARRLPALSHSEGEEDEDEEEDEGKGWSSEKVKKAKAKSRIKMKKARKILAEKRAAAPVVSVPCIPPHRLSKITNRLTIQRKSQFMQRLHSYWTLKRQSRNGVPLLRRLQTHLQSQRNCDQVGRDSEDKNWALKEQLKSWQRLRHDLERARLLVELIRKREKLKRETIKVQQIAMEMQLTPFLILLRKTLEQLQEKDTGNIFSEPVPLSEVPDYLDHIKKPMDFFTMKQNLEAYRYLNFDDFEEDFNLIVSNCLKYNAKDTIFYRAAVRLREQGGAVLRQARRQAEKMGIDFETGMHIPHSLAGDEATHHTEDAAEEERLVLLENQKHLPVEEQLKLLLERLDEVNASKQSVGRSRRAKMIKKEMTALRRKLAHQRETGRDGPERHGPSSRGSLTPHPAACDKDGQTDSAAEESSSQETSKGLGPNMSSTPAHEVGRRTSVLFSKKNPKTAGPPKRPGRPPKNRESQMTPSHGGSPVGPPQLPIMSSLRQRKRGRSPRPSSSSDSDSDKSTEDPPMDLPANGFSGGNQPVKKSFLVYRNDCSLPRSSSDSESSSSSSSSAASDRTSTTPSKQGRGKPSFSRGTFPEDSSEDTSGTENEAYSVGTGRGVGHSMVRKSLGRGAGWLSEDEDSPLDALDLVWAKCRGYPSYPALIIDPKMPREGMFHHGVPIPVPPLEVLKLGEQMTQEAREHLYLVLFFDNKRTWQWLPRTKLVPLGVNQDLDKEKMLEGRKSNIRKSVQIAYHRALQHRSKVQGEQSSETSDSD
Description: Selectivity interaction (Human bromodomain panel (DSF assay)) EUB0000233b BRPF1. (In general: DSF heats the sample and reads unfolding from a dye or from intrinsic fluorescence.)

Test [6] addresses T2, Serine/threonine-protein kinase TNNI3K (Homo sapiens) (UniProt Q59H18).
T2 sequence (whole entry): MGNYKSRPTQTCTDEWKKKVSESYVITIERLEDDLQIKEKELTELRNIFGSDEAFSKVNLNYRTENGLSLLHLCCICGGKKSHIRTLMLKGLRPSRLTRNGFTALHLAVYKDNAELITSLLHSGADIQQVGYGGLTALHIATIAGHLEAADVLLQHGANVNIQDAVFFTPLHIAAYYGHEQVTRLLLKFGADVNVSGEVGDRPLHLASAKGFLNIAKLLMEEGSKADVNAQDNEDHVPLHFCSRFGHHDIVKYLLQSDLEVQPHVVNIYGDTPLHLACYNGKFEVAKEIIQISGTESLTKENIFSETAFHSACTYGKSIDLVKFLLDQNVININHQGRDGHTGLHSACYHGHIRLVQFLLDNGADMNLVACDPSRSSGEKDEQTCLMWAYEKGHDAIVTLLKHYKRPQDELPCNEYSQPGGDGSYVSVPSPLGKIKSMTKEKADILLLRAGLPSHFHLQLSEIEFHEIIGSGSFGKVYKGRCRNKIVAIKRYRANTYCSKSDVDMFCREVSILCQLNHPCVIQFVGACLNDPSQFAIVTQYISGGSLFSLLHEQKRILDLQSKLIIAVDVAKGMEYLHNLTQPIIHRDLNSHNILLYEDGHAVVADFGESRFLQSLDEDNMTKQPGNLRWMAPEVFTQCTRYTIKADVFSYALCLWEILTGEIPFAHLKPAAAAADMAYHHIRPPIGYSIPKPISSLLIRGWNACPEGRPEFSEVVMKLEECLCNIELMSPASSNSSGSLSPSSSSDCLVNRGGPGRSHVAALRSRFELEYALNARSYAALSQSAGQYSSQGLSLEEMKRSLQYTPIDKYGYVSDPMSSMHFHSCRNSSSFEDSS
Description: Selectivity interaction (KinomeScan (DiscoverX)) EUB0000595a TNNI3K. Conditions: at 10 µM.

Test [7] has as its target T3, Dual specificity mitogen-activated protein kinase kinase 6 (Homo sapiens) (UniProt P52564).
T3 sequence (whole entry): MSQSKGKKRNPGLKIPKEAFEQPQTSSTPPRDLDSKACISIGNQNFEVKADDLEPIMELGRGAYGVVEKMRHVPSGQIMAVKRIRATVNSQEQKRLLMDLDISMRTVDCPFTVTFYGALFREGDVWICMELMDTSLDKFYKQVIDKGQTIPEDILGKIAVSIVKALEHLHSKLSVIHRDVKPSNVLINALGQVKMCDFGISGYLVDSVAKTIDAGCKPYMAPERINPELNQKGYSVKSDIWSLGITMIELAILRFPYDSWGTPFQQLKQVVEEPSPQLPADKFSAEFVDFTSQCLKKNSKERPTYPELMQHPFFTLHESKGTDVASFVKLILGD
Description: Selectivity interaction (ActivX KiNativ screen (ex vivo kinase selectivity in human PBMCs)) EUB0001619a MAP2K6. In kind it is cell-based. To be noted: PBMC, at 1 µM.

Test [8] concerns the target Calcium/calmodulin-dependent protein kinase type II subunit gamma (Homo sapiens) (UniProt Q13555). Description: Selectivity interaction (ActivX KiNativ screen (ex vivo kinase selectivity in human PBMCs)) EUB0001619a CAMK2G. The format is cell-based. To be noted: PBMC, at 1 µM.

Chain of 5'-AMP-activated protein kinase catalytic subunit alpha-2 (Homo sapiens) (P54646 whole entry, looked up): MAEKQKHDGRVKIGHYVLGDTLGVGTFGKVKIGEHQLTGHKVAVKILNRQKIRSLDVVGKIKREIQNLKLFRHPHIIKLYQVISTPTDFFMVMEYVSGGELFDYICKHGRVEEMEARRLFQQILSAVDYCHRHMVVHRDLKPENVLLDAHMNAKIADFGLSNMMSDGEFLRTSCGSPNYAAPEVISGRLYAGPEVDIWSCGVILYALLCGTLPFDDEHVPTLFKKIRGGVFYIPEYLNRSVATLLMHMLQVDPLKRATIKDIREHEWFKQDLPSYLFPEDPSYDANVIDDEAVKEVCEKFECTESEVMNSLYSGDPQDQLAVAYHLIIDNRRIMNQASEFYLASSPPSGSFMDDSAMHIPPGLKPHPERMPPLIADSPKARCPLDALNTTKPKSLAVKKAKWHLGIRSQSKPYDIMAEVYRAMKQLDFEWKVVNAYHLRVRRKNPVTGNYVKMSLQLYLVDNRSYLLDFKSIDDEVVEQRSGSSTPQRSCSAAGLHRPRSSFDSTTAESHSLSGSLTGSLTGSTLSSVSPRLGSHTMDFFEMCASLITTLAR
Chain of Tyrosine-protein kinase receptor UFO (Homo sapiens) (P30530 whole entry, the tested form may be a part): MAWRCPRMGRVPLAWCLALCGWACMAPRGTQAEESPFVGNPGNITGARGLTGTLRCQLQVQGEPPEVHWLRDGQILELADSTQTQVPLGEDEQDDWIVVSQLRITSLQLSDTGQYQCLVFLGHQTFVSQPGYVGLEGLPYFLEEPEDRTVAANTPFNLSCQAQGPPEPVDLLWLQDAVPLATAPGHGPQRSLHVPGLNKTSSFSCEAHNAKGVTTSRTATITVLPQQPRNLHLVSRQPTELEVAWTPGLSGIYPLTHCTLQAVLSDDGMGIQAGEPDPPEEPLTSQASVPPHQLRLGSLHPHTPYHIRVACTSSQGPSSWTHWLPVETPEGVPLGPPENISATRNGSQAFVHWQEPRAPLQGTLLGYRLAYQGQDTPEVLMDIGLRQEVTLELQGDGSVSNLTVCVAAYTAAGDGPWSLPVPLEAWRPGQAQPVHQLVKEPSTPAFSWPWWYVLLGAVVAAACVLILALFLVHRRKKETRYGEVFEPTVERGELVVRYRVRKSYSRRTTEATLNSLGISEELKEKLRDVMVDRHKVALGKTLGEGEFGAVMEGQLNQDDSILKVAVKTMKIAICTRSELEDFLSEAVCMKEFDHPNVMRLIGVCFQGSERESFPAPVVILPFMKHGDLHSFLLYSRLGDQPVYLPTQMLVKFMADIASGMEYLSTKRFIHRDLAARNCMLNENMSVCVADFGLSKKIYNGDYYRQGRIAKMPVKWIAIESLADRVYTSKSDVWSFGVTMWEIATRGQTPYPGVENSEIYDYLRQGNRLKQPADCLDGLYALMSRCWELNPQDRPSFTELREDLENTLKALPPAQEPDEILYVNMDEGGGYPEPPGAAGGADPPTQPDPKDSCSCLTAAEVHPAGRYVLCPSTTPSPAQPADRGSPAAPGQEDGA
Chain of Phosphatidylinositol 4-phosphate 3-kinase C2 domain-containing subunit beta (Homo sapiens) (O00750 whole entry, the tested form may be a part): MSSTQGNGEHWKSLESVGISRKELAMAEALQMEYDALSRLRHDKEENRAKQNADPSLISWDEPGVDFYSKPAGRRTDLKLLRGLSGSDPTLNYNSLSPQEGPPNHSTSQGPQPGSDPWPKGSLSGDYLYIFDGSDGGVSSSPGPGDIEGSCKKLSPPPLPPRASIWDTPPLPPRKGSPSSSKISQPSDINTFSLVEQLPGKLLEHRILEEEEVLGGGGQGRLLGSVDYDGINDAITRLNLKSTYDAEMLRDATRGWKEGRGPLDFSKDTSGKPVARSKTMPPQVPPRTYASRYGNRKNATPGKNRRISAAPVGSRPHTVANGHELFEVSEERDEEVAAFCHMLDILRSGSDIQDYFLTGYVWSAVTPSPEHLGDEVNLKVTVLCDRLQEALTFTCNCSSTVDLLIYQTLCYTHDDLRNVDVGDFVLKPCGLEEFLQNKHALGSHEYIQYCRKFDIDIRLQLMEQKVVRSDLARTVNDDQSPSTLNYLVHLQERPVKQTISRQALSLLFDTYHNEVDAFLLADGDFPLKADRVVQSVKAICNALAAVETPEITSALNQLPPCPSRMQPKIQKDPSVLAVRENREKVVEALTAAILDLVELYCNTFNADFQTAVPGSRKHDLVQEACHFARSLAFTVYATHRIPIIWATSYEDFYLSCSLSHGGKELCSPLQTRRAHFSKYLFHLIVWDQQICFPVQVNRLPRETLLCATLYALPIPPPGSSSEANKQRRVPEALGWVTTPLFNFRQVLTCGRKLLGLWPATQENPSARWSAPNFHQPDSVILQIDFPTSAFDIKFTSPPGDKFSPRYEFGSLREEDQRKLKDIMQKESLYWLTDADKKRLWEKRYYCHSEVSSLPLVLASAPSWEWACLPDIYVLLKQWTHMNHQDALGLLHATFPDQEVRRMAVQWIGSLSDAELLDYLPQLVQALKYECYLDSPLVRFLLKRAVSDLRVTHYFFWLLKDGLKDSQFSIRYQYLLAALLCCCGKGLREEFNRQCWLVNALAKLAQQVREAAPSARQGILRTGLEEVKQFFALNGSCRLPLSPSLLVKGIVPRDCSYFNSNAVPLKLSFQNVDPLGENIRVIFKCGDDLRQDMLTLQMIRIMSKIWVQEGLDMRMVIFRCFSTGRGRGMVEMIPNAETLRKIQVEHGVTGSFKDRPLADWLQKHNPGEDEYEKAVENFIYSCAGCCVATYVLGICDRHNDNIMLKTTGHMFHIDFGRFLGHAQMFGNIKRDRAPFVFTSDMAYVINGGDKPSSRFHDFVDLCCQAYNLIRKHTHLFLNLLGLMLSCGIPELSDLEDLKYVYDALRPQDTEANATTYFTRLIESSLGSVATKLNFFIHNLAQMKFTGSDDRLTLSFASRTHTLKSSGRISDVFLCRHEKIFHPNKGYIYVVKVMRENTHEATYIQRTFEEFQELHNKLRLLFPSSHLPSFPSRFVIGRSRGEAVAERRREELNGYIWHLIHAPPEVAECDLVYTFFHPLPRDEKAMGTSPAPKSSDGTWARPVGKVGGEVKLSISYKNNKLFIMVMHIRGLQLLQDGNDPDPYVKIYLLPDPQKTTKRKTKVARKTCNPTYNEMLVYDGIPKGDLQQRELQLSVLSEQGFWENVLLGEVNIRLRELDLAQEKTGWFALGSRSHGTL
Chain of Mast/stem cell growth factor receptor Kit (P10721 whole entry): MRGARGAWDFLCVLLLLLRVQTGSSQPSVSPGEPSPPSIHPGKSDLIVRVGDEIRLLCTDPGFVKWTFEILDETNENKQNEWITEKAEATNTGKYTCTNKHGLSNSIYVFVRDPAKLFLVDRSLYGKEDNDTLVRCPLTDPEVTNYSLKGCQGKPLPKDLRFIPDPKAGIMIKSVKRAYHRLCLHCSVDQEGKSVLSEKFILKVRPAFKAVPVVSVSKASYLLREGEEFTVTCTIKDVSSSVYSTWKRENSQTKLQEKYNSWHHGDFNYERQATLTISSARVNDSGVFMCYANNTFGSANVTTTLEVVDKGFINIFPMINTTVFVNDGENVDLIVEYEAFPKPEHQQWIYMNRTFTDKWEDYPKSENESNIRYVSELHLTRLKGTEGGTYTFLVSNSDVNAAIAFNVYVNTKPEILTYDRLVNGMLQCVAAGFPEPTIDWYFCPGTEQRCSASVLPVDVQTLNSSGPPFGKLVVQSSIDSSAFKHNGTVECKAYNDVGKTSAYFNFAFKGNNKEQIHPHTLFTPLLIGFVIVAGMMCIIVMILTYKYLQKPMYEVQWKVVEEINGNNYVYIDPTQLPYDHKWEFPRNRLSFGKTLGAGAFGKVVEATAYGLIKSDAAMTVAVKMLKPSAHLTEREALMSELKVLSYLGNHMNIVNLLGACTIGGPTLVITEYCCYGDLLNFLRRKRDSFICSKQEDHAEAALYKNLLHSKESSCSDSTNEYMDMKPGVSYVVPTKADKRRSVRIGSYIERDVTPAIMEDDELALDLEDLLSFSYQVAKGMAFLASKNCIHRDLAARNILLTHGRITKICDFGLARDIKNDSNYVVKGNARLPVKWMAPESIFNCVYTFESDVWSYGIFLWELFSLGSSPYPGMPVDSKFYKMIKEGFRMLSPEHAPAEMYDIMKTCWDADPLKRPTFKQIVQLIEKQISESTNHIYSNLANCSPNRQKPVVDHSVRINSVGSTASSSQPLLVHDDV
Chain of Calcium/calmodulin-dependent protein kinase type II subunit gamma (Homo sapiens) (Q13555 whole entry): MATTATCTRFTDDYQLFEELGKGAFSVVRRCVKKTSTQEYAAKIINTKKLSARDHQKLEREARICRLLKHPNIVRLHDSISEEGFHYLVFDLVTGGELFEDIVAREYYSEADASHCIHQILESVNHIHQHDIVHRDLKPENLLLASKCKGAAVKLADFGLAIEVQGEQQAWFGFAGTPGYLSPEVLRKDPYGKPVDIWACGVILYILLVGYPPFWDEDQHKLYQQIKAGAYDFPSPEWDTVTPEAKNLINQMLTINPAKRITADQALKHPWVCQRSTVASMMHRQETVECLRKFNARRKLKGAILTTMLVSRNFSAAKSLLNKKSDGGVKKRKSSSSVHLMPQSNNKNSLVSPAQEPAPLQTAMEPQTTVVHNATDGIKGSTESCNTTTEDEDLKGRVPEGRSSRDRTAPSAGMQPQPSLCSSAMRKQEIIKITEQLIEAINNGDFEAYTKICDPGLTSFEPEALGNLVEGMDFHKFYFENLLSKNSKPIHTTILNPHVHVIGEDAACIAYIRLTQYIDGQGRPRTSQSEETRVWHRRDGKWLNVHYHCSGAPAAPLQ

In test [1], `Nc1cnc(N2CCc3cc(S(=O)(=O)Nc4c(F)cc(Cl)cc4F)cc(N4CCCC4=O)c32)nc1` [TP-020n] registered a % of control of 69%.

In test [2], `COc1cc(Nc2nc(C)cc(-c3cnn4nc(OC)ccc34)n2)cc(C(F)(F)F)c1` came in with a % of control of 100%.

As to `C=CC(=O)Nc1cc(-n2c(=O)ccc3cnc4ccc(-c5ccc(NS(C)(=O)=O)cc5)cc4c32)ccc1C`, the % of control is 92% in test [3] (at 1 µM), 92% in [3] (at 10 µM), 100% in test [4] (at 1 µM) and 77% in test [4] (at 10 µM). In turn, `CC[C@@H]1[C@H](F)C(=O)N[C@@H]1COc1nccc2cc(C(N)=O)c(OC)cc12` [ZIMLOVISERTIB] yielded a % of inhibition in test [5] of 2.99%. On to `CN(C)CCCOc1ccc(-c2cc(NCCCn3cccn3)nc(S(C)(=O)=O)n2)cc1`, for which the dTM on Peregrin (Homo sapiens) is less than 2 K. In turn, `COCC(=O)NC/C=C/c1ccc2ncnc(Nc3ccc(Oc4ccc(C)nc4)c(C)c3)c2c1` [CP-724714] returned a % of control in [6] of 100%.

As for `N#Cc1cccc(-c2c[nH]c3ncnc(N4CCOCC4)c23)c1`, the % of inhibition in test [7] came out at 14%; in test [8], 3%.
